According to PubChem BioAssay AID1259411 (Chemical Carcinogenesis Research Information System (CCRIS), 2018):
Active and inactive are the calls of the source. The rule behind the calls is not given here.

Tested on: rodent carcinogenicity bioassays, tumor incidence
Assay: CCRIS carcinogenicity studies
Conditions: Route: ORAL
Outline: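 Archive of carcinogenicity, mutagenicity, tumor promotion and tumor inhibition results drawn from journals, NCI reports and other sources, expert-reviewed; covers 1985-2011 and is no longer updated.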

Row | Compound | carcinogen call (Species: MOUSE, Strain/Sex: B6C3F1/FEMALE, Dose: 0, 30.7, 310 MG/D IN DRINKING WATER FOR LIFE ADMINISTERED TO MICE OF MOTHERS EXPOSED TO SAME DOSES THROUGH PREGNANCY AND, Dose: 0, 30.7, 310 MG/D IN DRINKING WATER FOR LIFE ADMINISTERED TO MICE OF MOTHERS EXPOSED TO SAME DOSES THROUGH PREGNANCY AND) | carcinogen call (Species: MOUSE, Strain/Sex: B6C3F1/FEMALE, Dose: 0, 750, 1500, 3000 PPM IN DRINKING WATER FOR 104-105 WK (STUDY DURATION: 104-105 WK), Dose: 0, 750, 1500, 3000 PPM IN DRINKING WATER FOR 104-105 WK (STUDY DURATION: 104-105 WK), Tumor Site: Type of Lesion: FORESTOMACH: SQUAMOUS CELL PAPILLOMA OR CARCINOMA) | carcinogen call (Species: MOUSE, Strain/Sex: B6C3F1/MALE, Dose: 0, 30.7, 310 MG/D IN DRINKING WATER FOR LIFE ADMINISTERED TO MICE OF MOTHERS EXPOSED TO SAME DOSES THROUGH PREGNANCY AND, Dose: 0, 30.7, 310 MG/D IN DRINKING WATER FOR LIFE ADMINISTERED TO MICE OF MOTHERS EXPOSED TO SAME DOSES THROUGH PREGNANCY AND) | carcinogen call (Species: MOUSE, Strain/Sex: B6C3F1/MALE, Dose: 0, 750, 1,500, 3,000 PPM IN DRINKING WATER FOR 104-105 WK (STUDY DURATION: 104-105 WK), Dose: 0, 750, 1,500, 3,000 PPM IN DRINKING WATER FOR 104-105 WK (STUDY DURATION: 104-105 WK)) | carcinogen call (Species: MOUSE, Strain/Sex: C57BL/FEMALE, Dose: 0, 30.7, 310 MG/D IN DRINKING WATER BEGINNING AT 7-8 WK OF AGE AND CONTINUING FOR STUDY DURATION (STUDY DURATION: LIFE S, Dose: 0, 30.7, 310 MG/D IN DRINKING WATER BEGINNING AT 7-8 WK OF AGE AND CONTINUING FOR STUDY DURATION (STUDY DURATION: LIFE S) | carcinogen call (Species: MOUSE, Strain/Sex: VM/FEMALE, Dose: 0, 0.2% IN DRINKING WATER BEGINNING AT WEANING AND CONTINUING FOR DURATION STUDY (STUDY DURATION: LIFETIME)) | carcinogen call (Species: MOUSE, Strain/Sex: VM/FEMALE, Dose: 0, 0.2% IN DRINKING WATER BEGINNING IN UTERO AND CONTINUING FOR DURATION OF STUDY (STUDY DURATION: LIFETIME)) | carcinogen call (Species: MOUSE, Strain/Sex: VM/MALE, Dose: 0, 0.2% IN DRINKING WATER BEGINNING AT WEANING AND CONTINUING FOR DURATION OF STUDY (STUDY DURATION: LIFETIME)) | carcinogen call (Species: MOUSE, Strain/Sex: VM/MALE, Dose: 0, 0.2% IN DRINKING WATER BEGINNING IN UTERO AND CONTINUING FOR DURATION OF STUDY (STUDY DURATION: LIFETIME)) | carcinogen call (Species: RAT, Strain/Sex: F344/FEMALE, Dose: 0, 750, 1,500, 3,000 PPM IN DRINKING WATER FOR 105 WK (STUDY DURATION: 105 WK), Dose: 0, 750, 1,500, 3,000 PPM IN DRINKING WATER FOR 105 WK (STUDY DURATION: 105 WK)) | carcinogen call (Species: RAT, Strain/Sex: F344/MALE,FEMALE, Dose: 0.125, 0.25% IN DRINKING WATER FOR 2 YR) | carcinogen call (Species: RAT, Strain/Sex: F344/MALE, Dose: 0, 0.2, 0.5% IN DIET FOR 115 WK (STUDY DURATION: 115 WK), Dose: 0, 0.2, 0.5% IN DIET FOR 115 WK (STUDY DURATION: 115 WK)) | carcinogen call (Species: RAT, Strain/Sex: F344/MALE, Dose: 0, 750, 1,500, 3,000 PPM IN DRINKING WATER FOR 105 WK (STUDY DURATION: 105 WK), Dose: 0, 750, 1,500, 3,000 PPM IN DRINKING WATER FOR 105 WK (STUDY DURATION: 105 WK)) | carcinogen call (Species: RAT, Strain/Sex: F344/FEMALE, Dose: 0, 2.5, 5% IN DRINKING WATER FOR 108 WK (STUDY DURATION: 108 WK), Dose: 0, 2.5, 5% IN DRINKING WATER FOR 108 WK (STUDY DURATION: 108 WK)) | carcinogen call (Species: RAT, Strain/Sex: F344/MALE, Dose: 0, 2.5, 5% IN DRINKING WATER FOR 108 WK (STUDY DURATION: 108 WK), Dose: 0, 2.5, 5% IN DRINKING WATER FOR 108 WK (STUDY DURATION: 108 WK))
1 | O=NO | inactive; negative | equivocal | inactive; negative | inactive; negative | inactive; negative | inactive; negative | inactive; negative | inactive; negative | inactive; negative | inactive; negative | inactive; negative | inactive; negative | inactive; negative |  | 
2 | NCC(=O)O |  |  |  |  |  |  |  |  |  |  |  |  |  | inactive; negative | inactive; negative
